Laboratory results published in patent publication US20080033274A1, “Device and Method for Monitoring the Functioning of the Lower Esophageal Sphincter” (Altana Pharma AG, priority 2004, published 2008).

Test system: transient lower esophageal sphincter relaxations (TLESRs) in the conscious dog
Experiment: Number of TLESRs (hydrogen marker gas eructations) in gastric fistula dog under barostat gastric pressure
Assay type: in vivo
Conditions: 7 μmol/kg i.v., 12 mm Hg to the stomach
Excerpt: The various aspects of the invention were studied with fistula dogs. The fistula is inserted into the stomach of the dog by methods known to the expert, for example as described in Postius S, Braeuer U. Loss of circadian rhythm in luminal acidity of canine stomach by implantation of a gastric fistula. Digestion. 1995; 56(1):3540.
The method according to the invention was used to quantify the number of transient lower esophageal sphincter relaxations (TLESRs, leading to gas refluxes) in the conscious dog, which are provoked by the introduction of hydrogen gas in the stomach. The method can be used with fasted or fed animals and it is not depending on the status of gastric acid secretion.
For the assessment of TLESRs, the gastric fistula dogs were temporarily connected via the gastric fistula to a barostat which continuously measures the gastric pressure and continuously approximates during the monitoring of the marker gas a target pressure by sucking or pumping a gas mixture of air and hydrogen, comprising 0.2-3% hydrogen, whereby 3% of hydrogen was yielding the highest sensitivity.
A target pressure was selected that causes an appropriate number of TLESRs, usually for a period of 30 min. […] The quantification of TLESRs resulting in eructations was performed by continuous collection of the gas in front of and in the middle of nose and mouth of the dog with an open measuring probe head. This gas, comprising hydrogen from the gastric gas mixture, which eructed if the dog is belching, was sucked to a hydrogen sensor (Model used: UST 2330, UST—Umweltsensortechnik GmbH, 98716 Geschwenda, Germany) registering the hydrogen concentration. Significant enhancement in hydrogen concentration in the collected gas was defined to represent a TLESR caused by an eruction. […] Some eructions occurred at 6 mm Hg and lots were measured above 12 mm Hg. However, above 12-14 mm Hg vomiting might be induced as well.
The study design was as follows: […]
0-30 minutes: detection of the number of TLESR by monitoring the concentration of hydrogen detected in the sensor […]

`NCC(CC(=O)O)c1ccc(Cl)cc1` (stereo not drawn) [Baclofen] was tested, and the “Number of TLESR detected in the time period indicated” value (“Number of TLESR detected” below) (time period 0-10 minutes) was 0.75, the “Number of TLESR detected” value (time period 10-20 minutes) was 0.25 and the “Number of TLESR detected” value (time period 20-30 minutes) was 1.75.
